Data reported in US4382142A, “Thiadiazole derivatives and process for preparing same” (Kowa Co., Ltd., priority 1978, dated 1983).
Counter-ions that a name gives are not always drawn. Like-named read-outs stand apart in the source and are kept apart here.

Key:
[1] = Acute toxicity (LD50, Litchfield-Wilcoxon method) after intraperitoneal injection in ddy mice; conditions: mouse, in vivo, ip
Experimental: The median lethal dose (LD50) of each of the test compounds was
determined by the LitchfieldWilcoxon method after the intraperitoneal
injection of the compound into ddy mice.

P388 leukemia = test: Antitumor test: survival of CDF1 mice inoculated intraperitoneally with P388 leukemia; assay type: in vivo; conditions: Mus musculus, ip, i.p., 24 hours and 5 days after inoculation, 10^6 P388 i.p., read-out: Survival Effect (survival days of treated relative to control animals); for response vs control in vivo at 200 mg/kg: 200 mg/kg/day; for response vs control in vivo at 400 mg/kg: 400 mg/kg/day
Experimental: Each experimental group was composed of six CDF1 mice. The mice were
inoculated intraperitoneally with 10^6 P388 leukemia, and the test
compounds dissolved in a physiological salt solution were administered
intraperitoneally to the animals 24 hours and 5 days, respectively, after
the inoculation. The survival effect of each of the compounds was
expressed by the percentage of the survival days of the treated animals i
each group relative to those of the control animals.

[2] = intraperitoneal, ddy mice, read-out: Acute Toxicity LD50

Row | Compound | LD50 [1] [mg/kg] | response vs control in vivo at 200 mg/kg (P388 leukemia) [%] | response vs control in vivo at 400 mg/kg (P388 leukemia) [%] | response vs control in vivo at 100 mg/kg (P388 leukemia; 100 mg/kg/day) [%] | LD50 [1, 2] [mg/kg] | response vs control in vivo at 460 mg/kg (P388 leukemia; 460 mg/kg/day) [%] | response vs control in vivo at 600 mg/kg (P388 leukemia; 600 mg/kg/day) [%]
1 | CC(C)C[C@H](N)C(=O)Nc1nncs1 [B, 2L-Leucylamino-1,3,4-thiadiazole.hydrochloride] | > 500 | 144 | 161 | – | – | – | –
2 | CC(C)C(N)C(=O)Nc1nncs1 (stereo not drawn) [E, 2DL-Valylamino-1,3,4-thiadiazole.hydrochloride] | > 1600 | 143 | 155 | – | – | – | –
3 | NC(C(=O)Nc1nncs1)c1ccccc1 (stereo not drawn) [I, 2Dl-Phenylglycylamino-1,3,4-thiadiazole.hydrobromide] | > 1600 | 125 | 146 | – | – | – | –
4 | NC1(C(=O)Nc2nncs2)CCCC1 [J, 2Cycloleucylamino-1,3,4-thiadiazole.hydrochloride] | 165 | – | – | 153 | – | – | –
5 | N[C@@H](Cc1c[nH]c2ccccc12)C(=O)Nc1nncs1 [L, 2L-Tryptophylamino-1,3,4-thiadiazole.hydrochloride] | – | 143 | 151 | – | 1200 | – | –
6 | CCC(C)C(N)C(=O)Nc1nncs1 (stereo not drawn) [D, 2DL-Isoleucylamino-1,3,4-thiadiazole.dihydrochloride] | 357 | 157 | – | – | – | – | –
7 | CC(C)C[C@@H](N)C(=O)Nc1nncs1 [C, 2D-Leucylamino-1,3,4-thiadiazole.hydrochloride] | > 500 | 116 | 157 | – | – | – | –
8 | CSCCC(N)C(=O)Nc1nncs1 (stereo not drawn) [H, 2DL-Methionylamino-1,3,4-thiadiazole.hydrochloride] | > 1600 | 121 | 124 | – | – | – | –
9 | N[C@@H](Cc1ccccc1)C(=O)Nc1nncs1 [M, 2L-Phenylalanylamino-1,3,4-thiadiazole.hydrobromide] | – | 145 | 156 | – | 1200 | – | –
10 | CC(C)[C@H](N)C(=O)Nc1nncs1 [F, 2L-Valylamino-1,3,4-thiadiazole.hydrochloride] | > 500 | 183 | 190 | – | – | – | –
11 | CC(C)CC(N)C(=O)Nc1nncs1 (stereo not drawn) [A, 2DL-Leucylamino-1,3,4-thiadiazole.hydrochloride] | > 1600 | 141 | 154 | – | – | – | –
12 | N[C@@H](CC(=O)O)C(=O)Nc1nncs1 [K, 2L-Aspartylamino-1,3,4-thiadiazole.monohydrate] | > 1600 | – | – | – | – | 116 | 119
13 | CC(C)[C@@H](N)C(=O)Nc1nncs1 [G, 2D-Valylamino-1,3,4-thiadiazole.hydrochloride] | > 500 | 93 | 102 | – | – | – | –
